Laboratory results published in patent US20260015337A1 (Trawsfynydd Therapeutics, Inc., priority 2022, published 2026).

These molecules were tested against 3CL Protease (Severe acute respiratory syndrome coronavirus 2, UniProt P0DTD1) (assay: 3CL Protease enzymatic activity assay (BPS Bioscience Assay Kit #78043-1, fluorescence)). Conditions: Table A; 30 min preincubation, 40 μM substrate, 4 hours at room temperature; read-out: IC50, nM (3CL Protease enzymatic activity).
Format: biochemical, SARS-CoV-2
Method: For determination of 3CL Protease enzymatic activity was used Assay Kit of BPS Bioscience, San Diego, CA (Catalog #78043-1).
All samples and controls should be tested in duplicate. • 1) Just before use, dilute 0.5 M DTT 500 times into the 3CL Protease Assay Buffer to obtain a DTT concentration of 1 mM. For example, add 10 μl of 0.5 M DTT to 5 ml of assay buffer. Prepare enough DTT-containing buffer as required for the assay. Store the remaining assay buffer at −20° C. • 2) Thaw the 3CL Protease on ice. Briefly spin the tube containing the enzyme to recover the full content of the tube. Note: 3CL Protease enzyme is sensitive to freeze/thaw cycles. […] Note: The exact concentration and volume of enzyme is lot-specific and will be indicated on the tube. Calculate required dilution from the information in the tube. It may be desirable to dilute the enzyme serially to avoid using large amounts of protease assay buffer for the dilution. • 4) Add 30 μl of diluted 3CL Protease to the wells designated as “Positive Control,” “Inhibitor Control,” and “Test Inhibitor.” Add 30 μl of Assay Buffer (containing 1 mM DTT) to the “Blank” wells. • 5) Dilute the 50 μg GC376 in 200 μl of Assay Buffer to obtain a 500 μM solution. Add 10 μl of GC376 (500 μM) to the wells labeled “Inhibitor Control”. Aliquot and store the remaining solution at −80° C. • 6) Prepare the Test Inhibitor. The final concentration of DMSO in the assay should not exceed 1%. If the Test Inhibitor is dissolved in DMSO, make a 100-fold higher concentration of the compound than the highest desired concentration. Then make a 20-fold dilution in 1× Assay Buffer (containing DTT). At this step the compound concentration is 5-fold higher than the final concentration. If the test inhibitor is dissolved in water, make a 5-fold higher concentration of the test compound than the final desired concentration in the Assay buffer (containing DTT). Add 10 μl of Test Inhibitor to each well designated “Test Inhibitor”. • 7) Diluent Solution (no inhibitor): add 10 μl of assay buffer (if the test compound is water soluble and was diluted in assay buffer) or 10 μl of 5% DMSO diluted in assay buffer (if DMSO was used to dissolve the test inhibitor) to “Blank” and “Positive Control” wells.
• 8) Preincubate for 30 min at room temperature with slow shaking. • 9) Dilute the 25 μl of 3CL Protease substrate (10 mM) in 1.25 ml of the Assay Buffer containing DTT, to make a […] solution. The final concentration of the 3CL Protease substrate in a 50 μl reaction is 40 μM. • 10) Start the reaction by adding 10 μl of the substrate solution to all the wells. Seal the plate with the plate sealer and incubate for 4 hours at room temperature with slow shaking. • 11) Measure the fluorescence intensity in a microtiter plate-reader fluorometer (Tecan Spark Cyto) capable of excitation at a wavelength 360 nm and detection of emission at a wavelength 460 nm. The fluorescence intensity can also be measured kinetically. The “Blank” value is subtracted from all other values. • The % inhibition was then used to calculate the IC50 values.

Structure (SMILES) | IC50 [nM]
Cc1ccc2cc(CC(C#N)NC(=O)[C@@H]3C4[C@H](CN3C(=O)[C@@H](NC(=O)C(F)(F)F)C(C)(C)C)C4(C)C)c(=O)[nH]c2c1 (stereo in doubt) [Compound 146, (1R,2S,5S)—N-(1-Cyano-2-(7-methyl-2-oxo-1,2-dihydroquinolin-3-yl)ethyl)-3-((S)-3,3-dimethyl-2-(2,2,2-trifluoroacetamido)butanoyl)-6,6-dimethyl-3-azabicyclo[3.1.0]hexane-2-carboxamide] | 50 to 100
Cc1ccc2[nH]c(=O)c(CC(C#N)N(C)C(=O)[C@@H]3[C@H]4[C@H](CN3C(=O)[C@@H](NC(=O)C(F)(F)F)C(C)(C)C)C4(C)C)cc2c1 (stereo partly drawn) [Compound 205, (1S,2S,5S)-N-[1-cyano-2-(6-methyl-2-oxo-1H-quinolin-3-yl)ethyl]-3-[(2S)-3,3-dimethyl-2-[(2,2,2-trifluoroacetyl)amino]butanoyl]-N,6,6-trimethyl-3-azabicyclo[3.1.0]hexane-2-carboxamide] | ≥ 1000
Cc1ccc2[nH]c(=O)c(C[C@H](C#N)NC(=O)[C@@H]3[C@H]4[C@H](CN3C(=O)[C@@H](NC(=O)C(F)(F)F)C(C)(C)C)C4(C)C)cc2c1 [Compound 114, (1S,2S,5S)—N-[(1R)-1-cyano-2-(6-methyl-2-oxo-1H-quinolin-3-yl)ethyl]-3-[(2S)-3,3-dimethyl-2-[(2,2,2-trifluoroacetyl)amino]butanoyl]-6,6-dimethyl-3-azabicyclo[3.1.0]hexane-2-carboxamide] | ≥ 1000
Cc1ccc2[nH]c(=O)c(C[C@@H](C#N)NC(=O)[C@@H]3C4[C@H](CN3C(=O)[C@@H](Nc3ccnc(C(F)(F)F)n3)C(C)(C)C)C4(C)C)cc2c1 (stereo in doubt) [Compound 161, (1R,2S,5S)—N—((S)-1-Cyano-2-(6-methyl-2-oxo-1,2-dihydroquinolin-3-yl)ethyl)-3-((S)-3,3-dimethyl-2-((2-(trifluoromethyl)pyrimidin-4-yl)amino)butanoyl)-6,6-dimethyl-3-azabicyclo[3.1.0]hexane-2-carboxamide] | ≥ 1000
Cc1ccc2[nH]c(=O)c(C[C@@H](C#N)NC(=O)[C@@H]3[C@@H]4[C@H](CN3C(=O)[C@@H](NC(=O)C(F)(F)F)C(C)(C)C)C4(C)C)c(C)c2c1 [Compound 178, (1R,2S,5S)—N—((S)-1-Cyano-2-(4,6-dimethyl-2-oxo-1,2-dihydroquinolin-3-yl)-ethyl)-3-((S)-3,3-dimethyl-2-(2,2,2-trifluoroacetamido)butanoyl)-6,6-dimethyl-3-azabicyclo[3.1.0]hexane-2-carboxamide] | 100 to 250
Cc1ccc2[nH]c(=O)c(CC(C#N)NC(=O)[C@@H]3C4[C@H](CN3C(=O)[C@@H](Nc3ncc(C)s3)C(C)(C)C)C4(C)C)cc2c1 (stereo in doubt) [Compound 152, (1R,2S,5S)—N-(1-Cyano-2-(6-methyl-2-oxo-1,2-dihydroquinolin-3-yl)ethyl)-3-((S)-3,3-dimethyl-2-((5-methylthiazol-2-yl)amino)butanoyl)-6,6-dimethyl-3-azabicyclo[3.1.0]hexane-2-carboxamide] | 100 to 250
CC(C)(C)[C@H](NS(C)(=O)=O)C(=O)N1C[C@H]2[C@@H]([C@H]1C(=O)N[C@@H](C#N)Cc1cc3cnccc3[nH]c1=O)C2(C)C [Compound 189, (1R,2S,5S)—N—((R)-1-Cyano-2-(2-oxo-1,2-dihydro-1,6-naphthyridin-3-yl)ethyl)-3-((S)-3,3-dimethyl-2-(methylsulfonamido)butanoyl)-6,6-dimethyl-3-azabicyclo[3.1.0]hexane-2-carboxamide] | ≥ 1000
CCOC(=O)N[C@@H](C(=O)N1CC2C(C1C(=O)N[C@@H](C#N)Cc1cc3cc(C)ccc3[nH]c1=O)C2(C)C)C(C)(C)C (stereo in doubt) [Compound 201, Ethyl N-[(1R)-1-[(1S)-2-[[(1R)-1-cyano-2-(6-methyl-2-oxo-1H-quinolin-3-yl)ethyl]carbamoyl]-6,6-dimethyl-3-azabicyclo[3.1.0]hexane-3-carbonyl]-2,2-dimethyl-propyl]carbamate] | 50 to 100
Cc1ccc2[nH]c(=O)c(C[C@@H](C#N)NC(=O)[C@H](Cc3ccccc3)N(C)C(=O)[C@@H](NC(=O)C(F)(F)F)C(C)(C)C)cc2c1 [Compound 206, (2S)—N-[(1S)-1-benzyl-2-[[(1S)-1-cyano-2-(6-methyl-2-oxo-1H-quinolin-3-yl)ethyl]amino]-2-oxo-ethyl]-N,3,3-trimethyl-2-[(2,2,2-trifluoroacetyl)amino]butanamide] | ≥ 1000
Cc1ccc2[nH]c(=O)c(C[C@@H](C#N)NC(=O)C3C[C@H]4OCC[C@H]4N3C(=O)[C@@H](NC(=O)OCc3ccccc3)C(C)(C)C)cc2c1 (stereo partly drawn) [Compound 197, Benzyl ((2S)-1-((3aR,6aR)-5-(((S)-1-cyano-2-(6-methyl-2-oxo-1,2-dihydroquinolin-3-yl)ethyl)carbamoyl)hexahydro-4H-furo[3,2-b]pyrrol-4-yl)-3,3-dimethyl-1-oxobutan-2-yl)carbamate] | ≥ 1000
CC1(C)CCc2[nH]c(=O)c(CC(C#N)NC(=O)[C@@H]3C4[C@H](CN3C(=O)[C@@H](NC(=O)C(F)(F)F)C(C)(C)C)C4(C)C)cc2C1 (stereo in doubt) [Compound 127, (1R,2S,5S)—N-(1-Cyano-2-(6,6-dimethyl-2-oxo-1,2,5,6,7,8-hexahydroquinolin-3-yl)ethyl)-3-((S)-3,3-dimethyl-2-(2,2,2-trifluoroacetamido)butanoyl)-6,6-dimethyl-3-azabicyclo[3.1.0]hexane-2-carboxamide] | 500 to 1000
CC(C)(C)[C@H](NS(C)(=O)=O)C(=O)N1C[C@H]2C([C@H]1C(=O)NC(C#N)Cc1cc3c([nH]c1=O)CCCC3)C2(C)C (stereo in doubt) [Compound 122, (1R,2S,5S)—N-(1-Cyano-2-(2-oxo-1,2,5,6,7,8-hexahydroquinolin-3-yl)ethyl)-3-((S)-3,3-dimethyl-2-(methylsulfonamido)butanoyl)-6,6-dimethyl-3-azabicyclo[3.1.0]hexane-2-carboxamide] | 100 to 250
Cc1ccc2[nH]c(=O)c(CC(C#N)NC(=O)[C@@H]3C4[C@H](CN3C(=O)[C@@H](Nc3nccc(C(F)(F)F)n3)C(C)(C)C)C4(C)C)cc2c1 (stereo in doubt) [Compound 156, (1R,2S,5S)—N-(1-Cyano-2-(6-methyl-2-oxo-1,2-dihydroquinolin-3-yl)ethyl)-3-((S)-3,3-dimethyl-2-((4-(trifluoromethyl)pyrimidin-2-yl)amino)butanoyl)-6,6-dimethyl-3-azabicyclo[3.1.0]hexane-2-carboxamide] | ≥ 1000
COc1cc2[nH]c(=O)c(C[C@@H](C#N)NC(=O)[C@@H]3[C@@H]4[C@H](CN3C(=O)[C@@H](NC(=O)C(F)(F)F)C(C)(C)C)C4(C)C)cc2cc1C [Compound 175, (1R,2S,5S)—N-[(1S)-1-Cyano-2-(7-methoxy-6-methyl-2-oxo-1H-quinolin-3-yl)ethyl]-3-[(2S)-3,3-dimethyl-2-[(2,2,2-trifluoroacetyl)amino]butanoyl]-6,6-dimethyl-3-azabicyclo[3.1.0]hexane-2-carboxamide] | 50 to 100
Cn1cccc(CC(C#N)NC(=O)[C@@H]2C3[C@H](CN2C(=O)[C@@H](NC(=O)C(F)(F)F)C(C)(C)C)C3(C)C)c1=O (stereo in doubt) [Compound 112, (1R,2S,5S)—N-(1-Cyano-2-(1-methyl-2-oxo-1,2-dihydropyridin-3-yl)ethyl)-3-((S)-3,3-dimethyl-2-(2,2,2-trifluoroacetamido)butanoyl)-6,6-dimethyl-3-azabicyclo[3.1.0]hexane-2-carboxamide] | ≥ 1000
